IC50 data for 29 molecules are collected here from US20250186437A1, “CARBOLINE COMPOUNDS AND USE THEREOF” (PTC Therapeutics, Inc., priority 2021, published 2025).

This assay has as its system MOLM-13 cells. As to the kind of experiment: MOLM-13 Cell Proliferation Assay (indicator of DHODH inhibition). It is filed as cell-based. The note with it: 72 Hours of culture, CellTiter-Glo, no uridine. Put shortly: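 Low-passage MOLM-13 cells (10^4/well) in RPMI 1640 + 10% FBS exposed to compound (0.5% DMSO final) for 72 h at 37 °C, 5% CO2. Viability read by CellTiter-Glo luminescence; growth reflects de novo pyrimidine synthesis dependent on DHODH.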

The molecule `Cc1ccc([C@H]2c3[nH]c4ccc(Cl)cc4c3CCN2c2nc(N)nc(C(F)(F)F)n2)cc1` [Compound 426, 4-[(1S)-6-chloro-1-(4-methylphenyl)-1,3,4,9-tetrahydro-2H-pyrido[3,4-b]indol-2-yl]-6-(trifluoromethyl)-1,3,5-triazin-2-amine] came in with an IC50 (Homo sapiens) of 65 nM.

As to `Cc1cc(C)nc(N2CCc3c([nH]c4cc(F)c(Cl)cc34)C2c2ccc(/C=C/CCO)cc2)n1` (centres unmarked) [Compound 244, (3E)-4-{4-[6-chloro-2-(4,6-dimethylpyrimidin-2-yl)-7-fluoro-2,3,4,9-tetrahydro-1H-pyrido[3,4-b]indol-1-yl]phenyl}but-3-en-1-ol], the IC50 (Homo sapiens) is 2.8 nM.

`Cc1cnc(N2CCc3c([nH]c4ccc(Cl)c(F)c34)C2c2ccc(C)c(F)c2F)nc1` (centres unmarked) [Compound 137, 6-chloro-1-(2,3-difluoro-4-methylphenyl)-5-fluoro-2-(5-methylpyrimidin-2-yl)-2,3,4,9-tetrahydro-1H-pyrido[3,4-b]indole]: the IC50 (Homo sapiens) was found to be 2.4 nM. This IC50 and that of the molecule before are within 1.5-fold of each other.

Under “Homo sapiens”, `CN(C)c1ncnc(N2CCc3c([nH]c4ccc(Cl)cc34)C2c2cnc(N3CCOCC3)nc2)n1` (centres unmarked) [Compound 297, 4-{6-chloro-1-[2-(morpholin-4-yl)pyrimidin-5-yl]-1,3,4,9-tetrahydro-2H-pyrido[3,4-b]indol-2-yl}-N,N-dimethyl-1,3,5-triazin-2-amine] returned an IC50 of 78 nM.

In the case of `FC(F)c1nc(N2CCc3c([nH]c4ccc(Cl)cc34)[C@@H]2c2cnc(N3CCOCC3)nc2)nc(C(F)(F)F)n1` [Compound 507, (1S)-6-chloro-2-[4-(difluoromethyl)-6-(trifluoromethyl)-1,3,5-triazin-2-yl]-1-[2-(morpholin-4-yl)pyrimidin-5-yl]-2,3,4,9-tetrahydro-1H-pyrido[3,4-b]indole], the IC50 (Homo sapiens) came to 0.6 nM. Against the preceding molecule, the IC50 is about 130-fold lower.

`Cc1nc(C)nc(N2CCc3c([nH]c4c(O)cc(Cl)cc34)C2c2cnc(N3CCOCC3)nc2)n1` (centres unmarked) [Compound 370, 6-chloro-2-(4,6-dimethyl-1,3,5-triazin-2-yl)-1-[2-(morpholin-4-yl)pyrimidin-5-yl]-2,3,4,9-tetrahydro-1H-pyrido[3,4-b]indol-8-ol]: inhibition (Homo sapiens) was half-maximal at 8.1 nM (IC50).

Regarding `FC(F)(F)c1nc(N2CCOCC2)nc(N2CCc3c([nH]c4ccc(Cl)cc34)[C@@H]2c2ccc(N3CCOCC3)nc2)n1` [Compound 446, (1S)-6-chloro-1-[6-(morpholin-4-yl)pyridin-3-yl]-2-[4-(morpholin-4-yl)-6-(trifluoromethyl)-1,3,5-triazin-2-yl]-2,3,4,9-tetrahydro-1H-pyrido[3,4-b]indole], the IC50 (Homo sapiens) stood at 2.7 nM. This IC50 is about 3-fold lower than that of the molecule before.

With `Cc1ccnc(N2CCc3c([nH]c4cc(F)c(Cl)cc34)C2c2cnc(N(C)C)nc2)n1` (centres unmarked) [Compound 94, 5-[6-chloro-7-fluoro-2-(4-methylpyrimidin-2-yl)-2,3,4,9-tetrahydro-1H-pyrido[3,4-b]indol-1-yl]-N,N-dimethylpyrimidin-2-amine], the IC50 (Homo sapiens) amounted to 22.2 nM. This IC50 is about 8.2-fold higher than that of the molecule before.

Under “Homo sapiens”, `Cc1ccc(C2c3[nH]c4ccc(C)c(F)c4c3CCN2c2nccc(C(F)(F)F)n2)cc1` (centres unmarked) [Compound 174, 5-fluoro-6-methyl-1-(4-methylphenyl)-2-[4-(trifluoromethyl)pyrimidin-2-yl]-2,3,4,9-tetrahydro-1H-pyrido[3,4-b]indole] displayed an IC50 of 7.8 nM.

Take `Cc1ccnc(N2CCc3c([nH]c4cc(F)c(Cl)cc34)C2c2cccc(F)c2F)n1` (centres unmarked) [Compound 63, 6-chloro-1-(2,3-difluorophenyl)-7-fluoro-2-(4-methylpyrimidin-2-yl)-2,3,4,9-tetrahydro-1H-pyrido[3,4-b]indole]: the IC50 (Homo sapiens) worked out at 13.2 nM.

On to `Fc1ccc(C2c3[nH]c4cc(F)c(Cl)cc4c3CCN2c2nccc(C(F)(F)F)n2)cc1` (centres unmarked) [Compound 24, 6-chloro-7-fluoro-1-(4-fluorophenyl)-2-[4-(trifluoromethyl)pyrimidin-2-yl]-2,3,4,9-tetrahydro-1H-pyrido[3,4-b]indole], for which the IC50 (Homo sapiens) is 17.6 nM.

In the case of `FC(F)(F)c1ccnc(N2CCc3c([nH]c4ccc(Cl)cc34)C2c2ccc(N3CCOCC3)nc2)n1` (centres unmarked) [Compound 303, 6-chloro-1-[6-(morpholin-4-yl)pyridin-3-yl]-2-[4-(trifluoromethyl)pyrimidin-2-yl]-2,3,4,9-tetrahydro-1H-pyrido[3,4-b]indole], the midpoint of inhibition (Homo sapiens), the IC50, lay at 2.5 nM.

With `Cc1nc(N2CC(F)(F)C2)nc(N2CCc3c([nH]c4ccc(Cl)cc34)[C@@H]2c2cnc(N3CCOCC3)nc2)n1` [Compound 457, (1S)-6-chloro-2-[4-(3,3-difluoroazetidin-1-yl)-6-methyl-1,3,5-triazin-2-yl]-1-[2-(morpholin-4-yl)pyrimidin-5-yl]-2,3,4,9-tetrahydro-1H-pyrido[3,4-b]indole], inhibition (Homo sapiens) was half-maximal at 5.8 nM (IC50).

On to `Cc1ccnc(N2CCc3c([nH]c4c(N)cc(Cl)cc34)C2c2ccc(N3CCOCC3)nc2)n1` (centres unmarked) [Compound 351, 6-chloro-2-(4-methylpyrimidin-2-yl)-1-[6-(morpholin-4-yl)pyridin-3-yl]-2,3,4,9-tetrahydro-1H-pyrido[3,4-b]indol-8-amine], for which the IC50 (Homo sapiens) is 2.1 nM.

On to `FC(F)(F)c1ccnc(N2CCc3c([nH]c4ccc(Cl)cc34)C2c2cnc(N3CC4(COC4)C3)nc2)n1` (centres unmarked) [Compound 391, 6-chloro-1-[2-(2-oxa-6-azaspiro[3.3]heptan-6-yl)pyrimidin-5-yl]-2-[4-(trifluoromethyl)pyrimidin-2-yl]-2,3,4,9-tetrahydro-1H-pyrido[3,4-b]indole], for which, for the setting “Homo sapiens”, the IC50 was determined as 5.7 nM.

For `Fc1c(Br)ccc(C2c3[nH]c4ccc(Cl)cc4c3CCN2c2nccc(C(F)(F)F)n2)c1F` (centres unmarked) [Compound 270, 1-(4-bromo-2,3-difluorophenyl)-6-chloro-2-[4-(trifluoromethyl)pyrimidin-2-yl]-2,3,4,9-tetrahydro-1H-pyrido[3,4-b]indole], under “Homo sapiens”, the IC50 came to 0.3 nM.

For the molecule `Fc1c(Cl)ccc2[nH]c3c(c12)CCN(c1ncc(Cl)cn1)C3c1ccc(C(F)(F)F)cc1` (centres unmarked) [Compound 62, 6-chloro-2-(5-chloropyrimidin-2-yl)-5-fluoro-1-[4-(trifluoromethyl)phenyl]-2,3,4,9-tetrahydro-1H-pyrido[3,4-b]indole], where the note is “Homo sapiens”, the concentration for half-maximal inhibition (IC50) is 24.7 nM. Compared with the last molecule, the IC50 is about 82-fold higher.

Where the note is “Homo sapiens”, `FC(F)(F)c1ccnc(N2CCc3c([nH]c4ccc(Cl)cc34)[C@@H]2c2ccc(N3CCOCC3)nc2)n1` [Compound 473, (1S)-6-chloro-1-[6-(morpholin-4-yl)pyridin-3-yl]-2-[4-(trifluoromethyl)pyrimidin-2-yl]-2,3,4,9-tetrahydro-1H-pyrido[3,4-b]indole] came in with an IC50 of 1 nM.

`Cc1ccc(C2c3[nH]c4ccc(Cl)cc4c3CCN2c2nccc(Cl)n2)cc1` (centres unmarked) [Compound 10, 6-chloro-2-(4-chloropyrimidin-2-yl)-1-(4-methylphenyl)-2,3,4,9-tetrahydro-1H-pyrido[3,4-b]indole]: under “Homo sapiens”, the IC50 came out at 4.1 nM.

`Cc1ccc(C2c3[nH]c4c(N)cc(Cl)cc4c3CCN2c2nc(C)nc(C)n2)cc1` (centres unmarked) [Compound 292, 6-chloro-2-(4,6-dimethyl-1,3,5-triazin-2-yl)-1-(4-methylphenyl)-2,3,4,9-tetrahydro-1H-pyrido[3,4-b]indol-8-amine]: 12.1 nM corresponded to half-maximal inhibition (Homo sapiens) (IC50). This IC50 is about 3-fold higher than that of the molecule before.

As for `N#Cc1ccc(C2c3[nH]c4cc(F)c(Cl)cc4c3CCN2c2ncc(F)cn2)cc1` (centres unmarked) [Compound 32, 4-[6-chloro-7-fluoro-2-(5-fluoropyrimidin-2-yl)-2,3,4,9-tetrahydro-1H-pyrido[3,4-b]indol-1-yl]benzonitrile], the IC50 (Homo sapiens) came to 49.2 nM.

`FC(F)(F)c1ccnc(N2CCc3c([nH]c4ccc(Cl)c(Br)c34)C2c2ccc(Cl)cc2)n1` (centres unmarked) [Compound 247, 5-bromo-6-chloro-1-(4-chlorophenyl)-2-[4-(trifluoromethyl)pyrimidin-2-yl]-2,3,4,9-tetrahydro-1H-pyrido[3,4-b]indole] had an IC50 (Homo sapiens) of 1.8 nM.

In the case of `Cc1ccc([C@H]2c3[nH]c4ccc(Cl)cc4c3CCN2c2ncc(F)c(C)n2)cc1` [Compound 394, (1S)-6-chloro-2-(5-fluoro-4-methylpyrimidin-2-yl)-1-(4-methylphenyl)-2,3,4,9-tetrahydro-1H-pyrido[3,4-b]indole], under “Homo sapiens”, the IC50 was determined as 4.9 nM.

Turning to `Cc1cc(C(F)(F)F)nc(N2CCc3c([nH]c4cc(F)c(Cl)cc34)C2c2cccc(F)c2F)n1` (centres unmarked) [Compound 147, 6-chloro-1-(2,3-difluorophenyl)-7-fluoro-2-[4-methyl-6-(trifluoromethyl)pyrimidin-2-yl]-2,3,4,9-tetrahydro-1H-pyrido[3,4-b]indole], under “Homo sapiens”, half-maximal inhibition (IC50) was put at 1.3 nM.

In turn, `CN(C)c1ccc(C2c3[nH]c4cc(F)c(Cl)cc4c3CCN2c2nccc(C(F)(F)F)n2)cc1` (centres unmarked) [Compound 170, 4-{6-chloro-7-fluoro-2-[4-(trifluoromethyl)pyrimidin-2-yl]-2,3,4,9-tetrahydro-1H-pyrido[3,4-b]indol-1-yl}-N,N-dimethylaniline] gave an IC50 (Homo sapiens) of 10.6 nM.

For `C=Cc1ccc(C2c3[nH]c4ccc(Cl)cc4c3CCN2c2ncc(F)cn2)cc1` (centres unmarked) [Compound 71, 6-chloro-1-(4-ethenylphenyl)-2-(5-fluoropyrimidin-2-yl)-2,3,4,9-tetrahydro-1H-pyrido[3,4-b]indole], half-maximal inhibition (Homo sapiens) (IC50) was put at 19.3 nM.

The molecule `Cc1ccc(C2c3[nH]c4cc(F)c(Cl)cc4c3CCN2c2ncc(Cl)cn2)cc1` (centres unmarked) [Compound 41, 6-chloro-2-(5-chloropyrimidin-2-yl)-7-fluoro-1-(4-methylphenyl)-2,3,4,9-tetrahydro-1H-pyrido[3,4-b]indole] displayed an IC50 (Homo sapiens) of 19.6 nM.

For the molecule `COC(=O)c1ncc([C@H]2c3[nH]c4ccc(Cl)cc4c3CCN2c2nc(C(F)(F)F)nc(C(F)(F)F)n2)cn1` [Compound 532, methyl 5-{(1S)-2-[4,6-bis(trifluoromethyl)-1,3,5-triazin-2-yl]-6-chloro-2,3,4,9-tetrahydro-1H-pyrido[3,4-b]indol-1-yl} pyrimidine-2-carboxylate], the IC50 turned out to be 8.1 nM.

Turning to `Cc1nc(C)nc(N2CCc3c([nH]c4ccc(Cl)cc34)C2c2cnc(N3C4CCC3COC4)nc2)n1` (centres unmarked) [Compound 338, 6-chloro-2-(4,6-dimethyl-1,3,5-triazin-2-yl)-1-[2-(3-oxa-8-azabicyclo[3.2.1]octan-8-yl)pyrimidin-5-yl]-2,3,4,9-tetrahydro-1H-pyrido[3,4-b]indole], the IC50 (Homo sapiens) worked out at 35 nM.
